Measurements reported in US5164399A, “Rapamycin pyrazoles” (American Home Products Corporation, priority 1991, dated 1992).
Read-outs that look alike come from different tables or passages of the source.

Assays:
[1] = system: pinch skin graft; test: survival time of pinch skin graft; type: in vivo, male BALB/c mice recipients (male DBA/2 donors); details: intraperitoneally
Description: (§1) Immunosuppressive activity was evaluated in an in vitro standard pharmacological test procedure to measure lymphocyte proliferation (LAF) and in two in vivo standard pharmacological test procedures. The first in vivo procedure was a popliteal lymph node (PLN) test procedure which measured the effect of compounds of this invention on a mixed lymphocyte reaction and the second in vivo procedure evaluated the survival time of a pinch skin graft.
The second in vivo test procedure is designed to determine the survival time of pinch skin graft from male DBA/2 donors transplanted to male BALB/c recipients. The method is adapted from Billingham R. E. and Medawar P. B., J. Exp. Biol. 28: 385-402, (1951). Briefly, a pinch skin graft from the donor is grafted on the dorsum of the recipient as a homograft, and an autograft is used as control in the same region. […] Untreated recipients serve as rejection control. The graft is monitored daily and observations are recorded until the graft becomes dry and forms a blackened scab. This is considered as the rejection day. The mean graft survival time (number of days±S.D.) of the drug treatment group is compared with the control group.

[2] = system: cells from the thymus of normal BALB/c mice (lymphocyte proliferation); test: comitogen-induced thymocyte proliferation procedure (LAF); type: cell-based; details: Mus musculus; for inhibition at 0.1 µM: read-out: LAF percent inhibition at 100 nM
Description: as §1
Briefly, cells from the thymus of normal BALB/c mice are cultured for 72 hours with PHA and IL-1 and pulsed with tritiated thymidine during the last six hours. […] Cells are harvested and incorporated; radioactivity is determined. Inhibition of lymphoproliferation is assessed in percent change in counts per minute from non-drug treated controls. The results are expressed as the IC50, expressed in nM, or as the percent inhibition at 100 nM.

[3] = system: popliteal lymph nodes (mixed lymphocyte reaction); test: in vivo popliteal lymph node (PLN) test procedure (mixed lymphocyte reaction); design: species or system C3H mice (BALB/c donors)
Description: as §1
A mixed lymphocyte reaction (MLR) occurs when lymphoid cells from genetically distinct animals are combined in tissue culture. Each stimulates the other to undergo blast transformation which results in increased DNA synthesis that can be quantified by the incorporation of tritiated thymidine. Since stimulating a MLR is a function of disparity at Major Histocompatibility antigens, an in vivo popliteal lymph node (PLN) test procedure closely correlates to host vs. graft disease. Briefly, irradiated spleen cells from BALB/c donors are injected into the right hind foot pad of recipient C3H mice. […] On Day 3 and Day 4, tritiated thymidine is given i.p., b.i.d. On Day 5, the hind popliteal lymph nodes are removed and dissolved, and radioactivity counted. The corresponding left PLN serves as the control for the PLN from the injected hind foot. Percent suppression is calculated using the non-drug treated animals as allogenic control. […]

[4] = system: organ grafts; details: histoincompatible rodents; cited from earlier work
[5] = system: Candida albicans; details: cited from earlier work
[6] = system: Candida albicans; details: cited from earlier work; remark: listed apart in the source
[7] = thymocytes, PHA and IL-1, 72 hours, tritiated thymidine, read-out: LAF IC50

## CO[C@@H]1C(=O)/C(C)=C/[C@@H](C)C(=O)C[C@@H]([C@H](C)C[C@@H]2CC[C@@H](O)[C@H](OC)C2)OC(=O)[C@@H]2CCCCN2C(=O)C(=O)[C@]2(O)O[C@@H](CC[C@H]2C)C[C@H](OC)/C(C)=C/C=C/C=C/[C@@H](C)C[C@@H](C)C1=O [Example 1, 31-Deoxy-31-oxorapamycin]
[1]
  Skin Graft (days ± SD), mean graft survival time: 9.16 ± 0.47 days
[2]
  inhibition at 0.1 µM: 41%
[2]; [7]
  IC50: 84.9 nM

## CO[C@@H]1C(=O)/C(C)=C/[C@@H](C)C(=O)C[C@@H]([C@H](C)C[C@@H]2CCC(=O)[C@H](OC)C2)OC(=O)[C@@H]2CCCCN2C(=O)C(=O)[C@]2(O)O[C@@H](CC[C@H]2C)C[C@H](OC)/C(C)=C/C=C/C=C/[C@@H](C)C[C@@H](C)C1=O [Example 2, 31,42-Dideoxy-31,42-dioxorapamycin]
[2]
  inhibition at 0.1 µM: 4%

## COc1c2n[nH]c1[C@H](C)C[C@H](C)/C=C/C=C/C=C(\C)[C@@H](OC)C[C@@H]1CC[C@@H](C)[C@@](O)(O1)C(=O)C(=O)N1CCCC[C@H]1C(=O)O[C@H]([C@H](C)C[C@@H]1CC[C@@H](O)[C@H](OC)C1)CC(=O)[C@H](C)/C=C/2C [Example 3, 33-Deoxo-31-deoxy-31,33-(1-hydrazinyl-2-ylidene)rapamycin]
[3]; i.p. daily Day 0 to Day 4, ratio as defined
  PLN (ratio): 0.52
[2]; [7]
  IC50: 205 nM

## CO[C@H]1C[C@@H]2CC[C@@H](C)[C@@](O)(O2)C(=O)C(=O)N2CCCC[C@H]2C(=O)O[C@H]([C@H](C)C[C@@H]2CC[C@@H](O)[C@H](OC)C2)CC(=O)[C@H](C)/C=C(\C)[C@@H](O)[C@@H](OC)C(=O)[C@H](C)C[C@H](C)/C=C/C=C/C=C/1C [Rapamycin, rapamycin]
[3]; 6 mg/kg, p.o.
  PLN suppression: 86%
[1]
  Skin Graft (days ± SD), mean graft survival time: 11.66 ± 0.47 days
[4]
  prolongation of survival time of organ grafts: prolong survival time
[2]; read-out: LAF IC50 of rapamycin as a control for Example 1
  IC50: 0.2 nM
[2]
  inhibition at 0.1 µM: 94%
[5]
  antifungal activity in vivo: antifungal activity
[6]
  antifungal activity in vitro: antifungal activity
